Measured values reported in patent US20240132431A1, “METHOD FOR ALKYLATING ACIDIC FUNCTIONAL GROUP” (Chugai Seiyaku Kabushiki Kaisha, priority 2021, published 2024).

Target: T1, Bcl-2 protein (Recombinant Human Bcl-2 Protein) (Homo sapiens, UniProt P10415)
T1 construct: purchased Novus NBP2-34889
Assay: Binding evaluation of mixture library compounds to Bcl-2 using AS-MS (affinity selection mass spectrometry)
Conditions: for ASMS ratio (%) n = 1 / ASMS ratio (%) n = 2: AS-MS on the mixture of 1200 library compounds, ASMS Ratio(%)=(A−C)/B×100; for ASMS ratio (%) n = 1: replicate n = 1; for ASMS ratio (%) n = 2: replicate n = 2
Method in brief: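 Readout is ASMS Ratio (%), (A−C)/B×100, from reversed-phase LC/MS of SEC-passed extracts, with protein-free unfiltered standard (B) and protein-free SEC blank (C). Recombinant human Bcl-2 at 20 μM final met ~1200 pooled compounds at […] each for 1 h, 23° C., dark, in Tris-HCl pH 7.4 buffer.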

T1 sequence (P10415 whole entry): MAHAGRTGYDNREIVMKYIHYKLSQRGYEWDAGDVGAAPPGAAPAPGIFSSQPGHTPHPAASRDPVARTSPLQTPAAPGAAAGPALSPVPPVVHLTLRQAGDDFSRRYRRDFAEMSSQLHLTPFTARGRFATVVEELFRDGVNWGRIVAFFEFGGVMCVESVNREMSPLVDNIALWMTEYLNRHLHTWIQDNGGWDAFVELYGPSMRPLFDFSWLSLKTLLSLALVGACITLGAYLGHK

ASMS ratio (%) (n = 1) | ASMS ratio (%) (n = 2) | ASMS ratio (%) n = 1 [%] | ASMS ratio (%) n = 2 [%] | Compound
22.4 | 5.3 |  |  | CCOc1cncc(-c2cc(CN3CCN(c4ccc(C(=O)NS(=O)(=O)c5ccc(NCCSc6ccccc6)c(C(F)(F)F)c5)nn4)CC3)cc(OC(F)(F)F)c2)c1 [B2R090-01, 6-[4-[[3-(5-Ethoxypyridin-3-yl)-5-(trifluoromethoxy)phenyl]methyl]piperazin-1-yl]-N-[4-(2-phenylsulfanylethylamino)-3-(trifluoromethyl)phenyl]sulfonylpyridazine-3-carboxamide]
−3.5 | 1.8 |  |  | CCOc1cccc(-c2ccc(CN3CCN(c4ccc(C(=O)NS(=O)(=O)c5ccc(NCCSc6ccccc6)c(C(F)(F)F)c5)nn4)CC3)c3ccccc23)c1 [B2R091-01, 6-[4-[[4-(3-Ethoxyphenyl)naphthalen-1-yl]methyl]piperazin-1-yl]-N-[4-(2-phenylsulfanylethylamino)-3-(trifluoromethyl)phenyl]sulfonylpyridazine-3-carboxamide]
16.0 | −1.3 |  |  | CCOc1cncc(-c2ccc(CN3CCN(c4ccc(C(=O)NS(=O)(=O)c5ccc(NCCSc6ccccc6)c(C(F)(F)F)c5)nn4)CC3)c3ccccc23)c1 [B2R092-01, 6-[4-[[4-(5-Ethoxypyridin-3-yl)naphthalen-1-yl]methyl]piperazin-1-yl]-N-[4-(2-phenylsulfanylethylamino)-3-(trifluoromethyl)phenyl]sulfonylpyridazine-3-carboxamide]
56.5 | 0.0 |  |  | CCOc1cccc(-c2csc(CN3CCN(c4ccc(C(=O)NS(=O)(=O)c5ccc(NCCSc6ccccc6)c(C(F)(F)F)c5)nn4)CC3)c2)c1 [B2R093-01, 6-[4-[[4-(3-Ethoxyphenyl)thiophen-2-yl]methyl]piperazin-1-yl]-N-[4-(2-phenylsulfanylethylamino)-3-(trifluoromethyl)phenyl]sulfonylpyridazine-3-carboxamide]
18.8 | 11.9 |  |  | CCOc1cncc(-c2csc(CN3CCN(c4ccc(C(=O)NS(=O)(=O)c5ccc(NCCSc6ccccc6)c(C(F)(F)F)c5)nn4)CC3)c2)c1 [B2R094-01, 6-[4-[[4-(5-Ethoxypyridin-3-yl)thiophen-2-yl]methyl]piperazin-1-yl]-N-[4-(2-phenylsulfanylethylamino)-3-(trifluoromethyl)phenyl]sulfonylpyridazine-3-carboxamide]
42.2 | 5.5 |  |  | CCOc1cccc(C#Cc2ccccc2CN2CCN(c3ccc(C(=O)NS(=O)(=O)c4ccc(NCCSc5ccccc5)c(C(F)(F)F)c4)nn3)CC2)c1 [B2R095-01, 6-[4-[[2-[2-(3-Ethoxyphenyl)ethynyl]phenyl]methyl]piperazin-1-yl]-N-[4-(2-phenylsulfanylethylamino)-3-(trifluoromethyl)phenyl]sulfonylpyridazine-3-carboxamide]
6.6 | −7.8 |  |  | CCOc1cccc(-c2ccc(C(C)N3CCN(c4ccc(C(=O)NS(=O)(=O)c5ccc(NCCSc6ccccc6)c(C(F)(F)F)c5)cc4)CC3)cc2)c1 (stereo not shown) [B2R097-01, 4-[4-[1-[4-(3-Ethoxyphenyl)phenyl]ethyl]piperazin-1-yl]-N-[4-(2-phenylsulfanylethylamino)-3-(trifluoromethyl)phenyl]sulfonylbenzamide]
9.2 | 7.5 |  |  | CCOc1cncc(-c2ccc(C(C)N3CCN(c4ccc(C(=O)NS(=O)(=O)c5ccc(NCCSc6ccccc6)c(C(F)(F)F)c5)cc4)CC3)cc2)c1 (stereo not shown) [B2R098-01, 4-[4-[1-[4-(5-Ethoxypyridin-3-yl)phenyl]ethyl]piperazin-1-yl]-N-[4-(2-phenylsulfanylethylamino)-3-(trifluoromethyl)phenyl]sulfonylbenzamide]
 |  | 0.0 | −8.4 | CCOc1cccc(-c2csc(C(=O)N3CCN(c4ccc(C(=O)N(C)CC56CC7CC(CC(C7)C5)C6)nn4)CC3)c2)c1 [B3A001-01, N-(1-Adamantylmethyl)-6-[4-[4-(3-ethoxyphenyl)thiophene-2-carbonyl]piperazin-1-yl]-N-methylpyridazine-3-carboxamide]
 |  | 1.9 | −1.2 | CCOc1cncc(-c2csc(C(=O)N3CCN(c4ccc(C(=O)N(C)CC56CC7CC(CC(C7)C5)C6)nn4)CC3)c2)c1 [B3A002-01, N-(1-Adamantylmethyl)-6-[4-[4-(5-ethoxypyridin-3-yl)thiophene-2-carbonyl]piperazin-1-yl]-N-methylpyridazine-3-carboxamide]
 |  | 6.5 | 4.9 | CCOc1cccc(-c2ccc(C(=O)N3CCN(c4ccc(C(=O)N(C)CC56CC7CC(CC(C7)C5)C6)nn4)CC3)cc2C)c1 [B3A003-01, N-(1-Adamantylmethyl)-6-[4-[4-(3-ethoxyphenyl)-3-methylbenzoyl]piperazin-1-yl]-N-methylpyridazine-3-carboxamide]
 |  | 3.5 | −0.5 | CCOc1cncc(-c2ccc(C(=O)N3CCN(c4ccc(C(=O)N(C)CC56CC7CC(CC(C7)C5)C6)nn4)CC3)cc2C)c1 [B3A004-01, N-(1-Adamantylmethyl)-6-[4-[4-(5-ethoxypyridin-3-yl)-3-methylbenzoyl]piperazin-1-yl]-N-methylpyridazine-3-carboxamide]
 |  | −1.5 | −4.8 | CCOc1cccc(-c2ccc(C(=O)N3CCN(c4ccc(C(=O)N(C)CC56CC7CC(CC(C7)C5)C6)nn4)CC3)cc2F)c1 [B3A005-01, N-(1-Adamantylmethyl)-6-[4-[4-(3-ethoxyphenyl)-3-fluorobenzoyl]piperazin-1-yl]-N-methylpyridazine-3-carboxamide]
 |  | 0.0 | 0.0 | CCOc1cncc(-c2ccc(C(=O)N3CCN(c4ccc(C(=O)N(C)CC56CC7CC(CC(C7)C5)C6)nn4)CC3)cc2F)c1 [B3A006-01, N-(1-Adamantylmethyl)-6-[4-[4-(5-ethoxypyridin-3-yl)-3-fluorobenzoyl]piperazin-1-yl]-N-methylpyridazine-3-carboxamide]
 |  | 9.1 | −5.1 | CCOc1cccc(C#Cc2ccccc2C(=O)N2CCN(c3ccc(C(=O)N(C)CC45CC6CC(CC(C6)C4)C5)nn3)CC2)c1 [B3A007-01, N-(1-Adamantylmethyl)-6-[4-[2-[2-(3-ethoxyphenyl)ethynyl]benzoyl]piperazin-1-yl]-N-methylpyridazine-3-carboxamide]
 |  | 0.6 | −0.3 | CCOc1cncc(C#Cc2ccccc2C(=O)N2CCN(c3ccc(C(=O)N(C)CC45CC6CC(CC(C6)C4)C5)nn3)CC2)c1 [B3A008-01, N-(1-Adamantylmethyl)-6-[4-[2-[2-(5-ethoxypyridin-3-yl)ethynyl]benzoyl]piperazin-1-yl]-N-methylpyridazine-3-carboxamide]
 |  | 0.6 | −0.3 | CCOc1cccc(C#Cc2cncc(C(=O)N3CCN(c4ccc(C(=O)N(C)CC56CC7CC(CC(C7)C5)C6)nn4)CC3)c2)c1 [B3A009-01, N-(1-Adamantylmethyl)-6-[4-[5-[2-(3-ethoxyphenyl)ethynyl]pyridine-3-carbonyl]piperazin-1-yl]-N-methylpyridazine-3-carboxamide]
 |  | 0.0 | 0.0 | CCOc1cncc(C#Cc2cncc(C(=O)N3CCN(c4ccc(C(=O)N(C)CC56CC7CC(CC(C7)C5)C6)nn4)CC3)c2)c1 [B3A010-01, N-(1-Adamantylmethyl)-6-[4-[5-[2-(5-ethoxypyridin-3-yl)ethynyl]pyridine-3-carbonyl]piperazin-1-yl]-N-methylpyridazine-3-carboxamide]
 |  | 4.5 | 2.0 | CCOc1cccc(-c2ccccc2CCC(=O)N2CCN(c3ccc(C(=O)N(C)CC45CC6CC(CC(C6)C4)C5)nn3)CC2)c1 [B3A011-01, N-(1-Adamantylmethyl)-6-[4-[3-[2-(3-ethoxyphenyl)phenyl]propanoyl]piperazin-1-yl]-N-methylpyridazine-3-carboxamide]
 |  | 1.4 | −2.7 | CCOc1cncc(-c2ccccc2CCC(=O)N2CCN(c3ccc(C(=O)N(C)CC45CC6CC(CC(C6)C4)C5)nn3)CC2)c1 [B3A012-01, N-(1-Adamantylmethyl)-6-[4-[3-[2-(5-ethoxypyridin-3-yl)phenyl]propanoyl]piperazin-1-yl]-N-methylpyridazine-3-carboxamide]
 |  | 10.2 | −20.0 | CCOc1cccc(-c2ccc(C(=O)N3CCN(c4ccc(C(=O)N(C)CC56CC7CC(CC(C7)C5)C6)nn4)CC3)c3ccccc23)c1 [B3A013-01, N-(1-Adamantylmethyl)-6-[4-[4-(3-ethoxyphenyl)naphthalene-1-carbonyl]piperazin-1-yl]-N-methylpyridazine-3-carboxamide]
 |  | 0.6 | 0.8 | CCOc1cncc(-c2ccc(C(=O)N3CCN(c4ccc(C(=O)N(C)CC56CC7CC(CC(C7)C5)C6)nn4)CC3)c3ccccc23)c1 [B3A014-01, N-(1-Adamantylmethyl)-6-[4-[4-(5-ethoxypyridin-3-yl)naphthalene-1-carbonyl]piperazin-1-yl]-N-methylpyridazine-3-carboxamide]
 |  | 8.9 | 3.0 | CCOc1cccc(-c2cc(C(=O)N3CCN(c4ccc(C(=O)N(C)CC56CC7CC(CC(C7)C5)C6)nn4)CC3)cc(C(C)(C)C)c2)c1 [B3A015-01, N-(1-Adamantylmethyl)-6-[4-[3-tert-butyl-5-(3-ethoxyphenyl)benzoyl]piperazin-1-yl]-N-methylpyridazine-3-carboxamide]
